How the values were obtained:
MCF-10A [1] = assay: Induction of DNA damage in human MCF-10A cells at 10 uM incubated for 48 hrs by Alkaline comet based EVOS digital inverted microscopic analysis; assay type: toxicity, cell-based
[2] = Drug localization in mitochondria of human MDA-MB-468 cells assessed as fluorescence at 5 uM pretreated with paraquat for […] by MitoTracker Red CMXRos based confocal microscopic analysis; assay type: ADME; details: time 1.5 hrs
[3] = Drug localization in nucleus of human MDA-MB-468 cells assessed as accumulation of compound in nucleus at 5 uM pretreated with paraquat for 10 hrs followed by compound addition and measured after […] by SYTO 9 or Hoechst 33342 staining based confocal microscopic analysis; assay type: ADME, subcellular; details: mda-mb-468, 10 h
[4] = Drug localization in nucleus of human MDA-MB-468 cells assessed as accumulation of compound in nucleus at 5 uM incubated for 0.5 hrs and measured after […] by SYTO 9 or Hoechst 33342 staining based confocal microscopic analysis; assay type: ADME, subcellular; details: mda-mb-468, 2 h
[5] = Drug localization in mitochondria of human MDA-MB-468 cells assessed as blue fluorescence at 5 uM incubated for 2 hrs by MitoTracker Red CMXRos based confocal microscopic analysis; assay type: ADME; details: mda-mb-468, 2 h
[6] = Drug localization in mitochondria of human MDA-MB-468 cells assessed as accumulation of compound in mitochondria at 5 uM incubated for 0.5 hrs and measured after […] by MitoTracker Red CMXRos based confocal microscopic analysis; assay type: ADME; details: mda-mb-468, 2 h
[7] = Photophysical property of the compound assessed as relative quantum yield at 2 uM in PBS and DMSO relative to quinine sulfate; assay type: physicochemical; details: buffer
MCF-10A [8] = assay: Induction of DNA damage in human MCF-10A cells at 5 uM incubated for 48 hrs by Alkaline comet based EVOS digital inverted microscopic analysis; assay type: toxicity, cell-based

Structure (SMILES): CC1(C)OB(c2ccc3cc(-n4cc(CCCCCCCCCOCc5cc(N(CCCl)CCCl)ccc5B5OC(C)(C)C(C)(C)O5)nn4)c(=O)oc3c2)OC1(C)C
- Activity (MCF-10A [1]): Non-toxic
- Drug uptake [2]: Active
- Drug uptake [3]: Not_active
- Drug uptake [4]: Not_active
- Drug uptake [5]: Not_active
- Drug uptake [6]: Active

Structure (SMILES): CC1(C)OB(c2ccc3c(c2)Oc2cc(B4OC(C)(C)C(C)(C)O4)ccc2C32OC(=O)c3cc(-n4cc(CCCCCCCCCOCc5cc(N(CCCl)CCCl)ccc5B5OC(C)(C)C(C)(C)O5)nn4)ccc32)OC1(C)C
- Drug uptake [2]: Active
- Drug uptake [3]: Not_active
- Drug uptake [4]: Not_active
- Drug uptake [5]: Not_active
- Drug uptake [6]: Active

Structure (SMILES): CC1(C)OB(c2ccc(N(CCCl)CCCl)cc2COCc2cn(-c3cc4ccc(O)cc4oc3=O)nn2)OC1(C)C
- Drug uptake [4]: Not_active
- Drug uptake [5]: Active
- Activity [7]: 0.17
- Activity (MCF-10A [8]): Non-toxic

Source: ChEMBL document CHEMBL6087388, “Hydrogen peroxide responsive theranostics for cancer-selective activation of DNA alkylators and real-time fluorescence monitoring in living cells” (Eur J Med Chem, 2024)
